Article PMC10101016, “The Photoactive Photosynthetic Reaction Center of a Rhodobacter sphaeroides Mutant Lacking 3-Vinyl (Bacterio)Chlorophyllide a Hydratase Contains 3-Vinyl Bacteriochlorophyll a” (Microbiology Spectrum, 2023)
Like-named read-outs stand apart in the source and are kept apart here.

Biological target: T1, reaction center (WT-RC, V-RC) (Cereibacter sphaeroides, UniProt Q3J1A5+Q3J1A6)
T1 construct: gene pufL

SMILES: COC(C)(C)C(=O)/C=C/C(C)=C/C=C/C(C)=C/C=C/C(C)=C/C=C/C=C(C)/C=C/C=C(\C)CC/C=C(\C)CCC=C(C)C [SO]
- pigment extraction and HPLC of purified RC, absorption spectrum (WT-RC and V-RC, semiaerobically grown cells): two Bpheo a molecules, and one spheroidenone (SO) molecule

SMILES: COC(C)(C)C/C=C/C(C)=C/C=C/C(C)=C/C=C/C(C)=C/C=C/C=C(C)/C=C/C=C(\C)CC/C=C(\C)CCC=C(C)C [SE]
- pigment extraction and HPLC of purified RC, absorption spectrum (WT-RC and V-RC, photoheterotrophically grown cells): except for the presence of spheroidene (SE), which reflects the culture conditions

SMILES: C=Cc1c(C)c2cc3nc(c4c5[nH]c(cc6nc(cc1[nH]2)[C@H](C)[C@H]6CC)c(C)c5C(=O)[C@@H]4C(=O)OC)[C@@H](CCC(=O)OC/C=C(\C)CCC[C@H](C)CCC[C@H](C)CCCC(C)C)[C@@H]3C [3V-Bpheo a]
- pigment extraction and HPLC of purified RC, absorption spectrum (V-RC from BFcfh-puhA, H-sites): The V-RC was estimated to contain four 3V-Bchl a molecules, two 3V-Bpheo a molecules
